Molecules are shown by their SMILES. Converted amounts (≈) assume the structure as drawn.

The values that follow come from patent US20130131121A1, “ANTI-VIRAL AGENT” (priority 2007, published 2013).

Series [1] has as its system human cytomegalovirus (HCMV). Kind of series: Suppression of HCMV virus production in infected MRC-5 cells (plaque technique). The settings on record: for EC50: Human betaherpesvirus 5, MRC5, HCMV proliferation in MRC-5 cells, read-out: EC50 (50% effective concentration); for SI (selection index): IC50/EC50. The class given is cell-based.
Series [2] can be described thus: Cytotoxicity (IC50) of components separated from Kumazasa extract. The settings on record: human, MRC-5 human fetal lung fibroblast cells.
Series [3] deals with influenza type A virus (A/Hiroshima/52/2005, H3N2). Kind of series: Plaque technique in MDCK cells, influenza type A virus. The settings on record: tricin concentration of 0.3 μg/ml. The class given is cell-based.
In series [4] the test system is influenza type B virus (B/Malaysia/2506/2004). As to the kind of experiment: Plaque technique in MDCK cells, influenza type B virus. To be noted: tricin concentration of 0.3 μg/ml. The format is cell-based.
Series [5] in a line: in vitro. To be noted: human.

A word on the IC50: it is the concentration needed to halve the response being measured. High values mean a need for much substance, low ones inhibition by little substance. Turning to `Oc1cccnc1` [3-hydroxy pyridine, 3-hydroxypyridine], in series [1], the EC50 is 3.4 mg/L (≈ 35.8 µM) and the “SI (selection index)” value was found to be 77.4. Also, in series [2], the concentration for half-maximal inhibition (IC50) was determined as 263 mg/L (≈ 2770 µM).
Turning to `Nc1nc(O)c2ncn(COC(CO)CO)c2n1` [Ganciclovir, reference compound], the EC50 in series [1] was in the range of 0.3 to 0.8 mg/L (≈ 1.18 to 3.13 µM).
Take `COc1cc(-c2cc(=O)c3c(O)cc(O)cc3o2)cc(OC)c1O` [Tricin, 5,7,4′-trihydroxy-3′,5′-dimethoxyflavone]: in series [1], the EC50 was 1.7 mg/L (≈ 5.15 µM). Besides, the “SI (selection index)” value in series [1] worked out at 1205.8. The “proliferation of the virus (virus titer)” value in series [1] (tricin concentration of 111 μg/ml, FIG. 4) is on record as “virtually completely inhibited”. The “proliferation suppression ratio (pt/pc×100%)” value in series [3] came to 52%; in series [4], 48%. The same compound returned an IC50 in series [2] of 2050 mg/L (≈ 6210 µM).
For the compound `COc1cc(C=O)ccc1O` [Vanillin, vanillin], in series [1], the EC50 came to 48 mg/L (≈ 315 µM) and the “SI (selection index)” value is 4.5. Further, the half-maximal inhibitory concentration (IC50) in series [2] is 215 mg/L (≈ 1410 µM).
For `O=C(O)/C=C/c1ccc(O)cc1` [p-coumaric acid, reference compound] the same measures were 8.2 mg/L (≈ 50 µM), 22.8 and 187 mg/L (≈ 1140 µM).
Consider `O=Cc1ccc(O)cc1` [p-hydroxybenzaldehyde], for which, in series [1], the EC50 came out at 12.8 mg/L (≈ 105 µM) and the “SI (selection index)” value is 23.8. The concentration for half-maximal inhibition (IC50) in series [5] turned out to be 305 mg/L (≈ 2500 µM).
